Consider nine compounds from US20230144211A1, “ANTIFOLATE LINKER-DRUGS AND ANTIBODY-DRUG CONJUGATES” (Byondis B.V., priority 2020, published 2023).

As usually defined, the IC50 is the concentration at which inhibition is half-maximal. Read a low IC50 as higher potency.

Test [1] concerns Jurkat NucLight Red cells. The test is described as follows: In vitro cell viability assay (CellTiter-Glo, 6 days). The test is classed as cell-based, human. The following applies: Homo sapiens, Jurkat, free antifolate drugs. As for the experimental part:
(§1) FaDu, BxPC-3, HeLa, MV4-11, and RAJI cell lines were obtained from Deutsche Sammlung von Mikroorganismen und Zellkulturen (Leipzig, Germany). Jurkat NucLight Red cells were obtained from Essen BioScience Inc. (Ann Arbor, Mich., USA). SK-BR-3 and SK-OV-3 cells were cultured in McCoys 5A medium (Lonza; Walkersville, Md., USA) supplemented with 10% v/w Fetal Bovine Serum (FBS), Heat-inactivated (HI) (Gibco-Life Technologies; Carlsbad, Calif.) and 80 U/mL Pen/Strep (Gibco-Life Technologies), at 37° C. in a humidified incubator under 5% CO2 atmosphere. SW-620 cells were similarly maintained in RPMI 1640 medium (Lonza), containing 10% v/w FBS HI and 80 U/mL Pen/Strep. A-549 cells were similarly maintained in F-12K Nutrient Mixture (1×) (Gibco-Life Technologies) media supplemented with 80 U/mL Pen/Strep and 5% v/w FBS, which was Qualified (Q) (Gibco-Life Technologies). BT-474 and AU-565 cells were similarly maintained in RPMI 1640 medium (Lonza), containing 10% v/w FBS, which was Qualified (Q) (Gibco-Life Technologies), and 80 U/mL Pen/Strep. […] Jurkat NucLight Red cells were similarly maintained in RPMI 1640 medium (Lonza), containing 10% v/w FBS HI, 80 U/mL Pen/Strep and 0.5 μg/mL Puromycin (Gibco-Life Technologies). FaDu cells were cultured in EMEM medium (Lonza) supplemented with 10% v/w FBS HI (Gibco-Life Technologies), 1× GlutaMAX (Gibco-Life Technologies), and 80 U/mL Pen/Strep (Gibco-Life Technologies), at 37° C. in a humidified incubator under 5% CO2 atmosphere.
(§2) After an overnight incubation, 10 serial log 10 dilutions of the free drugs were made in DMSO (Sigma-Aldrich). These free drug dose-response curves were 10-times further diluted in complete growth medium. For the ADCs according to the invention 10 serial log 10 dilutions were made in complete growth medium. 10 μL of a composition comprising a free drug or an ADC according to the invention was added to the assay plate (final DMSO content for free drugs was 1%). […] Cell viability was assessed after 6 days using a luminescent assay kit (CellTiter-Glo™ (CTG), Promega Corporation) according to the manufacturer's instructions. Percentage cell survival was calculated by dividing the measured luminescence for each free drug or ADC according to the concentration with the average mean of untreated cells (1% or 0.1% DMSO control (for free drugs) or 100% complete growth medium (for ADCs)) multiplied by 100.
(§3) Curves were fitted by non-linear regression using the sigmoidal dose-response equation with variable slope (four parameters) using curve-fitting software (GraphPad Prism, version 9.4.0 for Windows, GraphPad, San Diego, Calif. or Electronic Laboratory Notebook (ELN) add-in BioAssay, version 19.1.0.0218, Perkin Elmer, Waltham, Mass.). Relative IC50 values were calculated as the concentration that gives a response halfway between bottom and top of the curve, when using a 4-parameter logistic fit. Data were reported as mean IC50 value of at least one experiment performed in duplicate.
A general note: In ATP-based viability assays light output follows the ATP content of the culture.

Test [2] deals with BT-474 cells. The description is as above. The test is classed as cell-based. The conditions noted are these: Homo sapiens, free antifolate drugs, Table 1a, # no full dose-response curve. As for the experimental part:
as §1
as §2, with “Cell viability was assessed after 6 days using a luminescent assay kit (CellTiter-Glo™ (CTG), Promega Corporation) according to the manufacturer's instructions.” left out
as §3

Test [3] has as its system AU-565 cells. The description is as above. The following applies: Homo sapiens, AU565, free antifolate drugs, Table 1b. The test is classed as cell-based, human. As for the experimental part: as §1
as §2, with “Cell viability was assessed after 6 days using a luminescent assay kit (CellTiter-Glo™ (CTG), Promega Corporation) according to the manufacturer's instructions.” left out
as §3

The test system of test [4] is SK-BR-3 cells. The test is described as above. The test is classed as cell-based, human. The following applies: Homo sapiens. As for the experimental part: as §1
as §2, with “Cell viability was assessed after 6 days using a luminescent assay kit (CellTiter-Glo™ (CTG), Promega Corporation) according to the manufacturer's instructions.” left out
as §3

For test [5], the system named is A-549 cells. The test is described as above. Format: cell-based. The following applies: Homo sapiens, A549; free antifolate drugs, Table 1a; $ steep hillslope. As for the experimental part:
(§4) Human tumor cell lines SK-BR-3, SW-620, A-549, BT-474, Jurkat Clone E6-1, AU-565, and SK-OV-3 were obtained from American Type Culture Collection (Rockville, Md., USA). FaDu, BxPC-3, HeLa, MV4-11, and RAJI cell lines were obtained from Deutsche Sammlung von Mikroorganismen und Zellkulturen (Leipzig, Germany). Jurkat NucLight Red cells were obtained from Essen BioScience Inc. (Ann Arbor, Mich., USA). SK-BR-3 and SK-OV-3 cells were cultured in McCoys 5A medium (Lonza; Walkersville, Md., USA) supplemented with 10% v/w Fetal Bovine Serum (FBS), Heat-inactivated (HI) (Gibco-Life Technologies; Carlsbad, Calif.) and 80 U/mL Pen/Strep (Gibco-Life Technologies), at 37° C. in a humidified incubator under 5% CO2 atmosphere. SW-620 cells were similarly maintained in RPMI 1640 medium (Lonza), containing 10% v/w FBS HI and 80 U/mL Pen/Strep. A-549 cells were similarly maintained in F-12K Nutrient Mixture (1×) (Gibco-Life Technologies) media supplemented with 80 U/mL Pen/Strep and 5% v/w FBS, which was Qualified (Q) (Gibco-Life Technologies). BT-474 and AU-565 cells were similarly maintained in RPMI 1640 medium (Lonza), containing 10% v/w FBS, which was Qualified (Q) (Gibco-Life Technologies), and 80 U/mL Pen/Strep. Jurkat Clone E6-1, BxPC-3, HeLa, MV4-11, and RAJI cells were similarly maintained in RPMI 1640 medium (Lonza), containing 10% v/w FBS HI and 80 U/mL Pen/Strep. Jurkat NucLight Red cells were similarly maintained in RPMI 1640 medium (Lonza), containing 10% v/w FBS HI, 80 U/mL Pen/Strep and 0.5 μg/mL Puromycin (Gibco-Life Technologies). FaDu cells were cultured in EMEM medium (Lonza) supplemented with 10% v/w FBS HI (Gibco-Life Technologies), 1× GlutaMAX (Gibco-Life Technologies), and 80 U/mL Pen/Strep (Gibco-Life Technologies), at 37° C. in a humidified incubator under 5% CO2 atmosphere.
as §2, with “Cells in complete growth medium were plated in 96-well plates (90 μL/well) and incubated at 37° C., 5% CO2 at the following cell densities: 6500 SK-BR-3, 4000 SW-620, 2500 A-549, 10000 BT-474, 3000 Jurkat Clone E6-1, 5000 AU-565, 1250 FaDu, 1250 BxPC-3, 1000 HeLa, 7500 MV4-11, 1000 RAJI, 3000 Jurkat NucLight Red, and 4000 SK-OV-3 cells per well. After” for “After”
as §3

For test [6], the system named is Human tumor cell lines. The test is described as follows: In vitro cell viability assays, free antifolate drugs, overall comparison. Format: cell-based. The following applies: compared with talotrexin or parent compound. As for the experimental part:
as §4
as §2, with “Cells in complete growth medium were plated in 96-well plates (90 μL/well) and incubated at 37° C., 5% CO2 at the following cell densities: 6500 SK-BR-3, 4000 SW-620, 2500 A-549, 10000 BT-474, 3000 Jurkat Clone E6-1, 5000 AU-565, 1250 FaDu, 1250 BxPC-3, 1000 HeLa, 7500 MV4-11, 1000 RAJI, 3000 Jurkat NucLight Red, and 4000 SK-OV-3 cells per well. After” for “After”
as §3

Test [7] deals with SW-620 cells. The experiment in a line: In vitro cell viability assay (CellTiter-Glo, 6 days). The conditions noted are these: Homo sapiens, free antifolate drugs, Table 1a. Format: cell-based. As for the experimental part:
as §1, §2, §3

The test system of test [8] is FaDu cells. Described as above. The test is classed as cell-based. The conditions noted are these: Homo sapiens, free antifolate drugs, Table 1d. The protocol: as §1
as §2, with “Cell viability was assessed after 6 days using a luminescent assay kit (CellTiter-Glo™ (CTG), Promega Corporation) according to the manufacturer's instructions.” left out
as §3

Test [9] relates to BxPC-3 cells. Described as above. Format: cell-based. The conditions noted are these: Homo sapiens, free antifolate drugs, Table 1d. The protocol:
as §1
as §2, with “Cell viability was assessed after 6 days using a luminescent assay kit (CellTiter-Glo™ (CTG), Promega Corporation) according to the manufacturer's instructions.” left out
as §3

For test [10], the system named is SK-OV-3 cells. Described as above. The test is classed as cell-based. The conditions noted are these: Homo sapiens, free antifolate drugs, Table 1a. The protocol:
as §1, §2, §3

[11] abbreviates: SK-BR-3, free antifolate drugs, Table 1a.

Some results are limits rather than exact numbers.

In the case of `Nc1ccc(C(=O)NCCC[C@H](NC(=O)c2ccc(NCc3cnc4nc(N)nc(N)c4n3)cc2)C(=O)O)c(-c2nn[nH]n2)c1` [XX35, (S)-5-(4-Amino-2-(2H-tetrazol-5-yl)benzamido)-2-(4-(((2,4-diaminopteridin-6-yl)methyl)amino)benzamido)pentanoic acid], the IC50 is 1.4 nM in test [1] (Table 1b); 4.3 nM in test [2]; 0.62 nM in test [3]; 1.3 nM in test [4] (setting [11]); 1.03 nM in [4] (SK-BR-3, free antifolate drugs, Table 1b, # no full dose-response curve); around 2.5 nM in [5].

As to `Nc1ccc(C(=O)NCCC[C@H](NC(=O)c2ccc(CCc3ccc4nc(N)nc(N)c4c3)cc2)C(=O)O)cc1` [XJ4, (S)-5-(4-Aminobenzamido)-2-(4-(2-(2,4-diaminoquinazolin-6-yl)ethyl)benzamido)pentanoic acid], the IC50 in [2] was 8.1 nM; in test [4] (setting [11]), 3.4 nM; in test [5], around 10 nM. Further, the “antifolate activity, comparison in words” value in test [6] is “less active than talotrexin”.

In the case of `[N-]=[N+]=Nc1ccc(C(=O)NCCC[C@H](NC(=O)c2ccc(CCc3cnc4nc(N)nc(N)c4n3)cc2)C(=O)O)cc1` [XX5, (S)-5-(4-Azidobenzamido)-2-(4-(2-(2,4-diaminopteridin-6-yl)ethyl)benzamido) pentanoic acid], the IC50 was determined as 7.2 nM in [7], 16 nM in test [4] (setting [11]) and 76 nM in test [5]. Also, the “antifolate activity, comparison in words” value in test [6] is listed as “less active than talotrexin”.

With `Nc1ccc(C(=O)NCCC[C@H](NC(=O)c2ccc(CCc3ccc4nc(N)nc(N)c4c3F)cc2)C(=O)O)c(-c2nnn[nH]2)c1` [XG2, (S)-5-(4-Amino-2-(1H-tetrazol-5-yl)benzamido)-2-(4-(2-(2,4-diamino-5-fluoroquinazolin-6-yl)ethyl)benzamido)pentanoic acid], the IC50 stood at 0.87 nM in [1] (24 h, Table 1d); 0.31 nM in [8]; 0.92 nM in test [9]; 0.9 nM in [4] (SK-BR-3, 24 h, free antifolate drugs, Table 1d).

In the case of `Nc1ccc(C(=O)NCCC[C@H](NC(=O)c2ccc(NCc3cnc4nc(N)nc(N)c4n3)cc2)C(=O)O)cc1` [XT35, (S)-5-(4-Aminobenzamido)-2-(4-(((2,4-diaminopteridin-6-yl)methyl)amino)benzamido) pentanoic acid], the IC50 in [7] amounted to 2.5 nM; in test [4] (setting [11]), 3.1 nM; in test [5], 16 nM. For the same compound, the “antifolate activity, comparison in words” value in test [6] is given as “less active than talotrexin”.

For the compound `CN(Cc1cnc2nc(N)nc(N)c2n1)c1ccc(C(=O)N[C@@H](CCCNC(=O)c2ccc(N)cc2)C(=O)O)cc1` [XX12, (S)-5-(4-aminobenzamido)-2-(4-(((2,4-diaminopteridin-6-yl)methyl)(methyl)amino)benzamido) pentanoic acid], the results for the IC50 in test [7], in test [4] (setting [11]) and in [5] were 7.5 nM, 17 nM and 42 nM, respectively. The “antifolate activity, comparison in words” value in test [6] is listed as “less active than talotrexin”.

For `N#Cc1cc(N)ccc1-c1cn(CCC[C@H](NC(=O)c2ccc(NCc3cnc4nc(N)nc(N)c4n3)cc2)C(=O)O)nn1` [XX47, (S)-5-(4-(4-Amino-2-cyanophenyl)-1H-1,2,3-triazol-1-yl)-2-(4-(((2,4-diaminopteridin-6-yl)methyl)amino)benzamido)pentanoic acid], the results for the IC50 in test [2], in test [10] and in test [4] (setting [11]) were around 100 nM, above 100 nM and around 14 nM, respectively.

As to `Nc1ccc(C(=O)NCCC[C@H](NC(=O)c2ccc(CCc3cnc4nc(N)nc(N)c4n3)cc2)C(=O)O)cc1` [XX7, (S)-5-(4-Aminobenzamido)-2-(4-(2-(2,4-diaminopteridin-6-yl)ethyl)benzamido) pentanoic acid], the IC50 was 2.8 nM in test [7], 6.5 nM in [4] (setting [11]) and 29 nM in test [5]. For the same compound, in test [6], the “antifolate activity, comparison in words” value was “less active than talotrexin”.

Regarding `Nc1ccc(C(=O)NCCC[C@H](NC(=O)c2ccc(NCc3cnc4nc(N)nc(N)c4n3)cc2)C(=O)O)c(S(=O)(=O)O)c1` [XX37, (S)-5-(4-Amino-2-sulfobenzamido)-2-(4-(((2,4-diaminopteridin-6-yl)methyl)amino)benzamido) pentanoic acid], the figures for the 50% inhibitory concentration (IC50) in test [2], in [4] (setting [11]) and in [5] were 7.5 nM, 2.4 nM and 4 nM, respectively.
